According to patent US20220152165A1, “COMBINATION OF NASAL GENE DELIVERY AND ORAL CINNAMIC ACID, OLEAMIDE OR GEMFIBROZIL FOR LYSOSOMAL STOARGE DISORDERS” (Rush University Medical Center, priority 2019, published 2022):

Tested on: Cln2^(−/−) mice
Assay: Life span of Cln2^(−/−) mice, animal model of late infantile Batten disease (LINCL)
Type: in vivo
Conditions: n=6
Protocol: (§1) For intranasal gene delivery, Cln2^(−/−) mice received 5×10^6 genome copies of Ad-Cln2 in a volume of […] twice a week intranasally (2.5 μl/nostril) starting from two weeks of age for four weeks. For gemfibrozil (gem) treatment, mice received gem (dissolved in 0.1% MeC) orally at a dose of 7.5 mg/kg body weight/day starting from six weeks of age. FIG. 1 describes the percentage of survival is shown by Kaplan-Meier plot.
as §1, with “FIG. 2” for “FIG. 1”, “describes mean” for “describes the percentage of”, “survival days. Six mice (n=6) containing 3 males and 3 females were used in each group. ***p<0.001; NS, not significant.” for “survival is shown by Kaplan-Meier plot.”
Intranasal gene delivery was examined as a valid option for fatal lysosomal storage disorders. A mouse model of Late Infantile Neuronal Ceroid Lipofuscinosis (LINCL) was used, a rare neurodegenerative disease caused by mutations in the Cln2 gene that leads to deficiency or loss of function of the tripeptidyl peptidase 1 (TPP1) enzyme. […]

Cc1ccc(C)c(OCCCC(C)(C)C(=O)O)c1 [gemfibrozil, 5-(2,5-dimethylphenoxy)-2,2-dimethylpentanoic acid]
lifespan of Cln2^−/− mice (gemfibrozil alone, oral 7.5 mg/kg body weight/day starting from six weeks of age, mice not receiving Ad-Cln2): significantly increased the lifespan
lifespan of Cln2^−/− mice that received intranasal Ad-Cln2 (oral gemfibrozil 7.5 mg/kg body weight/day after 4 weeks of intranasal Ad-Cln2, compared with Ad-Cln2 alone): did not further increase the lifespan
